Active and inactive are the calls of the source.
Columns and labels:
[1] = viability of PTEN-deleted HCT116 cells – cell-based, HCT116 PTEN knockout, dose response (AID 1047); format: functional;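 note: HCT116 colon tumor cells with PTEN knocked out; cells exposed to compound for 60 hours before readout; potency for loss of cell viability measured by luminescence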
[2] = biological target: Type-1 angiotensin II receptor (Homo sapiens, UniProt P30556); test: antagonism of angiotensin II type 1 receptor – cell-based, uHTS hits, selectivity assay for APJ receptor antagonist project, dose response (AID 463214); format: functional;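 note: antagonist potency against angiotensin II stimulated AT1 response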
[3] = viability of HCT116 lacking mutant beta-catenin – cell-based, human colon tumor, dose response (AID 1045); format: functional;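 note: HCT116 colon tumor cells with beta catenin knocked out; cells exposed to compound for 60 hours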
[4] = biological target: Beta-galactosidase (Escherichia coli, UniProt Q8VNN2); test: PubChem AID 485352; format: functional
[5] = biological target: Serine/threonine-protein phosphatase (Candida dubliniensis (strain CD36 / CBS 7987 / NCPF 3949 / NRRLY-17841) (Yeast), UniProt B9W6M3); test: blockers of CaCl2-induced CDRE-lacZ signaling – S. cerevisiae, luminescence, secondary, dose response (AID 2388); format: functional, cell-based;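 note: yeast reporter cells carrying a calcineurin-responsive lacZ construct stimulated with calcium chloride; luminescent beta-galactosidase reporter signal in whole cells rather than isolated phosphatase activity; potency for inhibition where a drop in reporter signal means calcineurin blockade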
[6] = biological target: ATP-dependent molecular chaperone HSP82 (Candida albicans (strain WO-1) (Yeast), UniProt C4YTQ8); test: steroid-induced GRE reporter decrease in yeast – S. cerevisiae, luminescence, Hsp90 inhibitor project, dose response (AID 2400); format: functional, cell-based;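 note: beta-galactosidase luminescence from glucocorticoid response element reporter as proxy for Hsp90 function; inhibitor potency where signal loss means Hsp90 inhibition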
[7] = fluconazole-exposed Candida albicans growth modulators – fluorescence, retest, confirmation (AID 2467); format: functional, cell-based
[8] = NIH-3T3 fibroblast cytotoxicity, dose response, cytotoxicity control, cell-based, fluorescence, Alamar Blue, secondary assay (AID 2327); format: functional;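 note: NIH-3T3 mouse fibroblasts cultured with fluconazole at 8 µg/mL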
[9] = blockers of HIV-1 ZM109 envelope-driven cell-cell fusion – HeLa effector, CEM target cells, luciferase, cherry-pick, dose response (AID 652058); format: functional, cell-based;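 note: luciferase signal from HIV-1 Env mediated cell-cell fusion of effector and target cells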
[10] = biological target: T1, Microphthalmia-associated transcription factor (Homo sapiens, UniProt O75030); test: reducers of TRPM1 reporter luminescence, concentration series – cell-based, SK-MEL-5, cherry-picked, set 3, MITF inhibitor project, dose response (AID 493073); format: functional;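 note: SK-MEL-5 melanoma cells with luciferase driven by the MITF target TRPM1 promoter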
T1 sequence (O75030 whole entry): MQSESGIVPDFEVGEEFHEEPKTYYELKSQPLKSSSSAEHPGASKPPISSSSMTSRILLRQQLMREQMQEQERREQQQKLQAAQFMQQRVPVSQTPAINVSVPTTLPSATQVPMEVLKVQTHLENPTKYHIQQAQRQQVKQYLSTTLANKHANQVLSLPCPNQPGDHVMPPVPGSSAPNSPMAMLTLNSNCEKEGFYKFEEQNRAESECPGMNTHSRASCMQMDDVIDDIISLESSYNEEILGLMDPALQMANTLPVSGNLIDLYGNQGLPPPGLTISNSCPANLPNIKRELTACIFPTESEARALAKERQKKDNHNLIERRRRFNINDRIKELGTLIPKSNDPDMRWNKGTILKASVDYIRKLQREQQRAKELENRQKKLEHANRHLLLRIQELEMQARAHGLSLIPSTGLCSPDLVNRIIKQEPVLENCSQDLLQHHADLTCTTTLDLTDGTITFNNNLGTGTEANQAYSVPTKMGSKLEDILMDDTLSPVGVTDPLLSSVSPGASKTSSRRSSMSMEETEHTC

[11] = viability loss in CEM21 cells – cell-based, CellTiter-Glo luminescence, cherry-picked, cytotoxicity control for viral fusion inhibitor project, dose response (AID 652042); format: functional;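 note: potency for signal decrease meaning cytotoxicity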
[12] = system: INS1; test: INS-1E survival protection against cytokine death – cell-based, luminescence, retest, dose response (AID 449756); format: functional; settings: Rattus norvegicus;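 note: cell death triggered by IL-1 beta plus TNF-alpha plus IFN-gamma mixture; protective hits raise ATP signal compared with cytokine alone wells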
[13] = system: Vero; test: cells; format: functional; settings: Chlorocebus sabaeus
[14] = biological target: G-protein coupled receptor 55 (Homo sapiens, UniProt Q9Y2T6); test: selective activators of receptor GPR55 – imaging, U2OS cells, beta-arrestin-GFP redistribution, primary screen (AID 1961); format: functional
[15] = blockers of HIV-1 envelope-mediated cell-cell fusion – cherry-pick, dose response (AID 652057); format: functional, cell-based
[16] = HIV-1 AD8 envelope cell-cell fusion blockers – cherry-pick, dose response (AID 652062); format: functional, cell-based;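 note: luciferase signal from cell-cell fusion driven by HIV-1 clade B AD8 Env; potency is for inhibitors of fusion seen as a drop in luminescence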
[17] = system: A-375; test: proliferation inhibition in MITF-low A375 cells – cell-based, cherry-pick samples, set 2, counter-screen for MITF modulator project, dose response (AID 540335); format: functional; settings: Homo sapiens
[18] = system: Vero; test: cells; format: functional, cell-based; settings: Chlorocebus sabaeus
[19] = biological target: T2, Nuclear receptor subfamily 0 group B member 1 (Homo sapiens, UniProt P51843); test: Luminescence-based cell-based high throughput dose response assay for inhibitors of the orphan nuclear receptor subfamily 0, group B, member 1 (DAX1; NR0B1). [Related pubchem assays (depositor defined):AID504766, AID504790]; format: functional
T2 sequence (P51843 whole entry): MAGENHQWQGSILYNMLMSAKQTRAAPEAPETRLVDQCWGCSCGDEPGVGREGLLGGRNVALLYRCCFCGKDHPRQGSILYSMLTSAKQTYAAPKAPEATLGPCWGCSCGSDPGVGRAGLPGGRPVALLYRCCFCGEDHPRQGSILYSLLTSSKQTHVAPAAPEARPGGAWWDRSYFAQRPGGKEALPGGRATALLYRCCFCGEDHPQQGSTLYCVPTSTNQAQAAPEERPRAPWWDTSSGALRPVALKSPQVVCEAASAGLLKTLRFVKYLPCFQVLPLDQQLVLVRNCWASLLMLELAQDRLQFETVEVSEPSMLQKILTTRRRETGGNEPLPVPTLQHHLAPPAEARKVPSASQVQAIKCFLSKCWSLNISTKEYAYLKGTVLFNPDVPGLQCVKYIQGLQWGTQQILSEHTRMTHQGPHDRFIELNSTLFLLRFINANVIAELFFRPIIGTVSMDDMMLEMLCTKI

[20] = system: HEK293; test: cells; format: functional, cell-based; settings: Homo sapiens
[21] = Luminescence Cell-Based Dose Response HTS to Identify Inhibitors of 5'UTR Stem-Loop Driven Prion Protein mRNA Translation in H4 Neuroglioblastoma Cells. [Related pubchem assays: 1827 (Project Summary), 1813 (Primary HTS)]; format: functional
[22] = luciferase reporter signal suppression in cells – H4 neuroglioma cells, luminescence, dose response (AID 1990); format: functional, cell-based
[23] = alpha-synuclein stem-loop luciferase translation blockers – H4 neuroglioma cells, luminescence, confirmation (AID 1988); format: functional, cell-based
[24] = system: A-375; test: MITF: Counter assay: A375 proliferation Measured in Cell-Based System Using Plate Reader - 2084-03_Inhibitor_Dose_DryPowder_Activity. [Related pubchem assays (depositor defined):AID488944]; format: functional; settings: Homo sapiens
[25] = biological target: T3, Ubiquitin-conjugating enzyme E2 N (Homo sapiens, UniProt P61088); format: functional
T3 sequence (P61088 whole entry): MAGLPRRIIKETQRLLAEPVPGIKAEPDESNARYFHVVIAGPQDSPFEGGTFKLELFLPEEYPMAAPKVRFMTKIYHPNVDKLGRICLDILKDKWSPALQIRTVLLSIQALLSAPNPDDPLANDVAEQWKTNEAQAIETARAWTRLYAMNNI

[26] = biological target: T4, Bcl-2-related protein A1 (Mus musculus, UniProt Q07440); format: functional;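 note: confirmatory dose–response counterscreen on Bfl-1, used to check hits from a UBC13 polyubiquitin inhibitor campaign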
T4 sequence (Q07440 whole entry): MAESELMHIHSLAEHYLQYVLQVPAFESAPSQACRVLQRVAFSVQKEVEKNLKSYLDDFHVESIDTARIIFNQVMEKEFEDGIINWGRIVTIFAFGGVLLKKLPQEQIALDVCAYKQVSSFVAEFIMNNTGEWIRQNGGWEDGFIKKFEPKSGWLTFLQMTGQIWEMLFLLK

[27] = biological target: T3, Ubiquitin-conjugating enzyme E2 N; format: functional; remark: listed apart in the source
[28] = toxicity toward HepG2 liver cells – cell-based, plate reader, cherry-pick, antagonist series, cytotoxicity control, dose response (AID 743416); format: functional
[29] = A549 cell cytotoxicity, dose response, cytotoxicity control, plate reader, cherry-pick, antagonist series (AID 743412); format: functional, cell-based
[30] = biological target: Paired box protein Pax-8 (Homo sapiens, UniProt Q06710); test: PAX8 transcriptional activity inhibition in RMG-I – RMG-I cells, luciferase, cherry-pick, dose response (AID 687027); format: functional, cell-based;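 note: luciferase reporter driven by Pax8 target thyroperoxidase promoter measured by SteadyGlo luminescence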
[31] = loss of viability in HepG2 cells – cell-based, CellTiter-Glo, cherry-picked, cytotoxicity control for Shn3 inhibitor project, dose response (AID 624134); format: functional
[32] = viability loss in HEK293 cells – cell-based, plate reader, cherry-picked samples, cytotoxicity control, dose response (AID 743446); format: functional
[33] = general cell-killing toxicity readout – plate reader, dry powder samples, cytotoxicity control for PAX8 inhibitor project, dose response (AID 743021); format: functional, cell-based
[34] = HEK-293T viability loss, compound-treated – cell-based, uHTS hits, cytotoxicity control for B/T-cell NF-kB inhibitor project, dose response (AID 489019); format: functional;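 note: IC50 reflects cytotoxicity as loss of cell viability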
[35] = blockade of melanocortin 4 receptor signaling – cell-based, plate reader, cherry pick, counter-screen for LGR2 antagonist project, dose response (AID 743444); format: functional;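 note: transfected HEK 293 cells stimulated with alpha-MSH peptide; potency of inhibitors of the alpha-MSH evoked signal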
[36] = biological target: Luciferin 4-monooxygenase (Photinus pyralis, UniProt P08659); test: inhibition of purified Photinus pyralis luciferase – biochemical, luminescence, dose response (AID 1891)
[37] = reduction of Shn3 3'UTR-driven luciferase in osteoblasts – cell-based, Clone20 osteoblasts, firefly luciferase, cherry-picked, dose response (AID 624132); format: functional;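 note: firefly luciferase luminescence from reporter carrying the Shn3 3'UTR in osteoblasts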
[38] = Luminescence Cell-Based Dose Confirmation HTS to Identify Inhibitors of Platelet Dense Granule Release. [Related pubchem assays: 1663 (Primary HTS), 1678 (Summary of Project)]; format: functional
[39] = system: Jurkat; test: blockers of NF-kB activation in T cells – Jurkat, luciferase reporter, luminescence, B- and T-cell, dose response (AID 489004); format: functional, cell-based; settings: Homo sapiens;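 note: NF-kB luciferase reporter Jurkat cells stimulated with PMA plus ionomycin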
[40] = blockers of bursicon-stimulated LGR2 cAMP reporter – cell-based, HEK293, CRE-luciferase reporter, cherry pick, set 2, dose response (AID 743343); format: functional;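 note: transfected cells were stimulated with diluted bursicon conditioned medium after compound addition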
[41] = biological target: Beta-2 adrenergic receptor (Homo sapiens, UniProt P07550); test: ADRB2 activation measured by internalization – cell-based, FAP fluorogen, flow cytometry, cherry pick 1, dose response (AID 588763); format: functional
Beta-2 adrenergic receptor, sequence (P07550 whole entry): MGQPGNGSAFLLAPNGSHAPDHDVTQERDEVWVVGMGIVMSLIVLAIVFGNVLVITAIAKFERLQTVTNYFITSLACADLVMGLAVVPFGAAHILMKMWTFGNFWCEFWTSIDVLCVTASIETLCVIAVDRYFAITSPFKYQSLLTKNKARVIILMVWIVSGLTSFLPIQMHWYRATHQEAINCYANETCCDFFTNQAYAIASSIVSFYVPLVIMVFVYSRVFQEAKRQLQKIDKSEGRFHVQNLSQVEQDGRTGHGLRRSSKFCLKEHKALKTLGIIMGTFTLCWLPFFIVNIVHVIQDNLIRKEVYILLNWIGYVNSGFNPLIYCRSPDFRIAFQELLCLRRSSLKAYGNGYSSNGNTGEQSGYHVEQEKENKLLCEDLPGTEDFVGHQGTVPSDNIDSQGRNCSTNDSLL

Paired box protein Pax-8, sequence (Q06710 whole entry): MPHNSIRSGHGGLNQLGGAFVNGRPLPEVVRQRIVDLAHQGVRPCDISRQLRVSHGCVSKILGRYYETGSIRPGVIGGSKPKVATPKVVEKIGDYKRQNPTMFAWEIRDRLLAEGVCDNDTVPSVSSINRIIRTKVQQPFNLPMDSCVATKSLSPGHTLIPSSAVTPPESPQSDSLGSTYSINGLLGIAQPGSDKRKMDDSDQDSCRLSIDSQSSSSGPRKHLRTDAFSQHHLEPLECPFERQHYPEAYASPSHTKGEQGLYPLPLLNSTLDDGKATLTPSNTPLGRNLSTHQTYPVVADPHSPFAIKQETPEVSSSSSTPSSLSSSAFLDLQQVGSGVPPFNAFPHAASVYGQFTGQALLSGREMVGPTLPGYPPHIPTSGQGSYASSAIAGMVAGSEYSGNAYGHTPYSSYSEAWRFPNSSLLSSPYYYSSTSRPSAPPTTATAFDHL
Type-1 angiotensin II receptor, sequence (P30556 whole entry): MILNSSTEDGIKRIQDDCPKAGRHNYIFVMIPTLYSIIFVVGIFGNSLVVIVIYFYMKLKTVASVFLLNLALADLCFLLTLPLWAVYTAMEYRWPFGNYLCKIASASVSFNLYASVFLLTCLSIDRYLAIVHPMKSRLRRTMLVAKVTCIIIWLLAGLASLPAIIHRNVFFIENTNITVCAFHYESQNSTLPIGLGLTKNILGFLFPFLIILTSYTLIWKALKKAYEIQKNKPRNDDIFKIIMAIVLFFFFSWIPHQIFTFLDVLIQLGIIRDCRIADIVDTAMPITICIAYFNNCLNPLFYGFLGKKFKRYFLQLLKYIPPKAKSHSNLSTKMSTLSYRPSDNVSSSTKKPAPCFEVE
Beta-galactosidase, sequence (Q8VNN2 whole entry): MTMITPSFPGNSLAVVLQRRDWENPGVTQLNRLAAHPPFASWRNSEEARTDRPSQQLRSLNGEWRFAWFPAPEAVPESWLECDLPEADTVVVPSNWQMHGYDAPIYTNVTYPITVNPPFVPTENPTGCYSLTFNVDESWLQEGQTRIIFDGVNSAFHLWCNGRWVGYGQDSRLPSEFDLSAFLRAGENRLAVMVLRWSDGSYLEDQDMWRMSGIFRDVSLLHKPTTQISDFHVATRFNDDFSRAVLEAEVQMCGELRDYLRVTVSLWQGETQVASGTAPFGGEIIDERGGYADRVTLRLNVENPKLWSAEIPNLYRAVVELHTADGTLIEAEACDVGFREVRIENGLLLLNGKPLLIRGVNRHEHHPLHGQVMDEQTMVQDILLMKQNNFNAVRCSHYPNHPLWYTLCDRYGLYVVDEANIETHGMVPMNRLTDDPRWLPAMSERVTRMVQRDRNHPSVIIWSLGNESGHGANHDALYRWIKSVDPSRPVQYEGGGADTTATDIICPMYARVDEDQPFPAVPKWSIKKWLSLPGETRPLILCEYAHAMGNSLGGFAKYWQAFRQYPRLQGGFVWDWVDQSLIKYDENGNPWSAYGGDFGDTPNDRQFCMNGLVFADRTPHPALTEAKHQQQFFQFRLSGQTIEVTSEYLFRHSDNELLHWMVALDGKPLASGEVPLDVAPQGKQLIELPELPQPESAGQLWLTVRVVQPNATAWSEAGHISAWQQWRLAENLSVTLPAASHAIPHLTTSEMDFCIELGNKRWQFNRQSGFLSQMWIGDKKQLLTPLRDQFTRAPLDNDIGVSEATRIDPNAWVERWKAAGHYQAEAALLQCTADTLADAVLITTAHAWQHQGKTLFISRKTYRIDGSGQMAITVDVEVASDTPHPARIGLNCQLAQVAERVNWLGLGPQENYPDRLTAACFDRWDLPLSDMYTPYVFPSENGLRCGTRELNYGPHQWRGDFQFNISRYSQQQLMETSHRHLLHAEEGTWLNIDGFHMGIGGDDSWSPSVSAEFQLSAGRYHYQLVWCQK
G-protein coupled receptor 55, sequence (Q9Y2T6 whole entry, the tested form may be a part): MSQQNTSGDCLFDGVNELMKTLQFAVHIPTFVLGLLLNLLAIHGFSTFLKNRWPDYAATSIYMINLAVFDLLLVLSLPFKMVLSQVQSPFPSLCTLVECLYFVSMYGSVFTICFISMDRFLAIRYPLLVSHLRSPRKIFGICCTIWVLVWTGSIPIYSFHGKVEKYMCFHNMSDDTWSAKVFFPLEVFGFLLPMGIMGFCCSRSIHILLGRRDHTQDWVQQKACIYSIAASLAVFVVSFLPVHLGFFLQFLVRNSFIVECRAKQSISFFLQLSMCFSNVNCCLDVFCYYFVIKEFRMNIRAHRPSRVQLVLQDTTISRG
ATP-dependent molecular chaperone HSP82, sequence (C4YTQ8 whole entry): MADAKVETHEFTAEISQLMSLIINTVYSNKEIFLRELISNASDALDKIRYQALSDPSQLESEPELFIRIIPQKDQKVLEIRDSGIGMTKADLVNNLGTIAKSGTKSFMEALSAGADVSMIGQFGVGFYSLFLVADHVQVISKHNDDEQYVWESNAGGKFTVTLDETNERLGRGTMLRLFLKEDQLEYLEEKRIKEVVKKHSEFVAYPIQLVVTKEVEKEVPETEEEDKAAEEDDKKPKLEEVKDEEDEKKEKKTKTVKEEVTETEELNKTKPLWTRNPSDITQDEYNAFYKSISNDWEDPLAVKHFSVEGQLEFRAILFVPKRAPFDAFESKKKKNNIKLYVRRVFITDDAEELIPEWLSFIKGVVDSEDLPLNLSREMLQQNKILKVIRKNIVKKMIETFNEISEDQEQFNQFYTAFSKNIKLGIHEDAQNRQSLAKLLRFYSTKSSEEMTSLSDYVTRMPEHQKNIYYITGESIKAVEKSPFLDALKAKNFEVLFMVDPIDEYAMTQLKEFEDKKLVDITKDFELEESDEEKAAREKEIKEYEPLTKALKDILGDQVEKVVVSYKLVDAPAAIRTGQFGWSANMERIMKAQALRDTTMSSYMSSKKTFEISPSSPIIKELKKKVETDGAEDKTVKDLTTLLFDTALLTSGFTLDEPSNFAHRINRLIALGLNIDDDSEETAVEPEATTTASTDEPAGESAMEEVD
Luciferin 4-monooxygenase, sequence (P08659 whole entry): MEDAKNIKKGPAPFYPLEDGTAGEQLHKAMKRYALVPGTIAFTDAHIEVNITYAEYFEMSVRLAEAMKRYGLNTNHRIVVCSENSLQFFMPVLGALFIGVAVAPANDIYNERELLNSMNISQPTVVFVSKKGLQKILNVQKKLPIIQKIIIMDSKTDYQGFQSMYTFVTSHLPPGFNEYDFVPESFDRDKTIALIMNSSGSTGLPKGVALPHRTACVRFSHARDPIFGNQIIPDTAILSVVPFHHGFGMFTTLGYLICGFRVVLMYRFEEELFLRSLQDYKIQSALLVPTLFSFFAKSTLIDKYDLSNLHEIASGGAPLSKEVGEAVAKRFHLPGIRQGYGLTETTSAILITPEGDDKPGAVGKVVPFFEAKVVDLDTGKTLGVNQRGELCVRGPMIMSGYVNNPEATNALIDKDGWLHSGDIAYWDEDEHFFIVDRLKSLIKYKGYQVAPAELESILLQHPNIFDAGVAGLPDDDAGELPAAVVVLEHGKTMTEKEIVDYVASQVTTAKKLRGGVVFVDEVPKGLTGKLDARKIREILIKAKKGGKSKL
Serine/threonine-protein phosphatase, sequence (B9W6M3 whole entry): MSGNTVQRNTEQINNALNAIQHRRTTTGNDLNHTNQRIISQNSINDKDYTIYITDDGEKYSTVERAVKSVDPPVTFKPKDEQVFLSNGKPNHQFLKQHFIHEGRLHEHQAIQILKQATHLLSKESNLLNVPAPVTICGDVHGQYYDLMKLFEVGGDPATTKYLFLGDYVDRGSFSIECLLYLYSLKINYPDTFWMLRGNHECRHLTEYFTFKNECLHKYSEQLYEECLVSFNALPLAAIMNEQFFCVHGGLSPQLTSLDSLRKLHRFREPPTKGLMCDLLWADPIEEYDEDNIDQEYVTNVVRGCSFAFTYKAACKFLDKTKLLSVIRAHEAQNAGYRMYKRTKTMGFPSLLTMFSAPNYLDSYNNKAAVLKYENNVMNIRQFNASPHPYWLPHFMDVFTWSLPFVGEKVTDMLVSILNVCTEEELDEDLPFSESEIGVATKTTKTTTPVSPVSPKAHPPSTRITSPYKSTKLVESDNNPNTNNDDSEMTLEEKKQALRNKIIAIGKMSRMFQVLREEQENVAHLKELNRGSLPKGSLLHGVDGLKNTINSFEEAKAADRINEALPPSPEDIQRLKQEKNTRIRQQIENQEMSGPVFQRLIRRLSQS

COc1ccc(NS(=O)(=O)c2cc([N+](=O)[O-])ccc2N/N=C\c2c(C)[nH]c3ccccc23)cc1
EC50 [1]: 17.6 µM (active) | IC50 [2]: > 40 µM (not active) | EC50 [3]: 19.9 µM (active) | EC50 [4]: > 40 µM (inactive)

CC(C)Cc1nc2oc3c(O)ncnc3c2c2c1CCCC2
EC50 [5]: > 180 µM (inactive) | EC50 [6]: > 150 µM (inactive) | EC50 [7]: 0.891 µM (active) | EC50 [8]: > 160 µM (inactive)

CC1CCC(C(C)C)C(OC(=O)Cn2c(-c3ccc(Cl)cc3)[n+](C)c3ccccc32)C1 (stereo unspecified)
AC50 [9]: 11.7 µM (active) | AC50 [10]: 6.29 µM (active) | AC50 [11]: 9.28 µM (active) | AC50 [12]: 3.42 µM (active) | CC50 [13]: > 25 µM (active) | EC50 [14]: > 32 µM (inactive) | AC50 [15]: 15.7 µM (active) | AC50 [16]: 10.8 µM (active) | AC50 [17]: 26.3 µM (active)

COc1cccc2sc(N(CCCN(C)C)C(=O)c3ccc(S(=O)(=O)N4CCCc5ccccc54)cc3)nc12
IC50 [18]: 24.6 µM (active)

O=C(O)c1ccc(N/N=C/C2=Cc3ccccc3OC2)cc1
IC50 [19]: > 67.6 µM (inactive) | IC50 [20]: > 67.6 µM (inactive)

CC1CC2(C)Oc3ccccc3CC2C(C)C1CNCCCN(C)C (stereo unspecified)
EC50 [21]: > 120 µM (not active) | EC50 [22]: > 120 µM (not active) | EC50 [23]: > 120 µM (not active) | AC50 [24]: 29.8 µM (active)

CSCCC(NC(=O)COc1ccccc1)C(=O)N1CCC(C(N)=O)CC1 (stereo unspecified)
IC50 [25]: 12.3 µM (active) | IC50 [26]: > 20 µM (inactive) | IC50 [27]: > 20 µM (inactive)

COCCn1c(C)cc(C2=NN=C(NC3CC3)SC2)c1C
AC50 [28]: 26.7 µM (active) | AC50 [29]: 22.4 µM (active) | AC50 [30]: < 0.26 µM (active) | AC50 [31]: 46.1 µM (active) | AC50 [32]: 29.2 µM (active) | AC50 [33]: 12.1 µM (active) | IC50 [34]: > 80 µM (inactive) | AC50 [35]: 0.282 µM (active) | EC50 [36]: 7.61 µM (active) | AC50 [37]: < 0.26 µM (active) | EC50 [38]: 2.14 µM (active) | IC50 [39]: 0.22 µM (active) | AC50 [40]: 0.215 µM (active)

CCn1c(COc2ccc(Cl)cc2)nnc1SCc1ccc(C#N)cc1
EC50 [41]: 2.11 µM (active)
